How the values were obtained:
Assay type in all cases: in vivo, rat (male Sprague-Dawley)
[1] = test system: insulin-resistant rats (after 24 hour fasting); experiment: Blood glucose-lowering effect in insulin-resistant (24 hour fasted) rats; conditions: for (A) Glucose (%), change vs placebo-treated control animals: blood, rats fasted 24 hours, 2 hours after oral administration of 100 μmol/kg, mean of 10 animals; for Superiority compared to the prior art with respect to lowering glucose after fasting: fasting as experimental model of insulin resistance, result in words
Protocol: The compounds of the formula I according to the invention lower the glucose concentration in the blood of rats which have been made insulin-resistant by prolonged fasting.
(§1) What is stated are the changes in per cent of the animals which have been treated with substance, compared to control animals which were treated with placebo, calculated from the mean values of in each case 10 individual values.
(§2) The test animals used were male Sprague-Dawley rats from the SPF breed Ivanovas (Kisslegg, Germany) having a body mass of 255-400 g. The animals were kept in a conventional manner, 4 animals each in cages made of Makrolon (22×38 cm) in a climatized room (21-23 degrees Celsius) with a fixed day/night rhythm (7a.m/7p.m) and a regulated relative atmospheric humidity of 55-60%. The animals received a maintenance diet—Altromin 1320 from Altromin (Lage, Germany)—and water ad libitum.
To determine the effect of the substance on blood glucose, feed was withdrawn 24 hours before the administration of the substance to produce an insulin-resistant condition.
(§3) The animals were divided at random in 5 groups of 10 animals each and marked. The substances were administered to the animals in the form of a neutral, aqueous emulsion (1 part by weight of substance+2 parts by weight of Cremophor EL—an emulsifier from BASF AG, Germany—) in a volume of 10 ml/kg of body weight using a stomach tube.
To determine the glucose in the blood, 50 μl of blood were collected from the retrobulbular venousplexus 2 hours after the administration of the substance, using a glass capillary, from animals which had been fasting for 24 hours, and the blood was deproteinated in ice-cold perchloric acid (0.66 mol/l). After centrifugation, the glucose was determined in the supernatant using enzymatic standard methods.
Enzymatic test with hexokinase/[…], test combination from Boehringer Mannheim, Germany.

fed, healthy rats [2] = experiment: Triglyceride-lowering effect in blood plasma of fed, healthy rats; conditions: for (B) Triglycerides (%), change vs placebo-treated control animals: blood plasma, fed healthy rats, oral 100 μmol/kg for 16 days, 24 hours after last administration, mean of 10
Protocol: as §1, §2, §3
(§4) To determine the parameters triglycerides, cholesterol and the activity of the glutamic-pyruvic transaminase (GPT), blood plasma was used. The blood plasma was obtained as an erythrocyte-free supernatant 15 minutes after venous blood sampling into heparinized Eppendorf reaction vessels by centrifugation (2×2 minutes at 16,000 rpm in an Eppendorf centrifuge).
Enzymatic test with lipase/glycerokinase, test combination from Boehringer Mannheim, Germany.

fed, healthy rats [3] = experiment: Cholesterol-lowering effect in blood plasma of fed, healthy rats; conditions: oral 100 μmol/kg for 16 days, 24 hours after last administration, mean of 10
Protocol: as §1, §2, §3, §4
Enzymatic colour test (CHOD-PAP method), test combination from Boehringer Mannheim, Germany.

healthy, fed rats [4] = experiment: Increase in activity of liver enzyme glutamic-pyruvate transaminase (GPT) in blood plasma; conditions: oral equimolar doses for 16 days, 24 hours after last administration
Excerpt: as §2, §3, §4
Kinetic enzyme test, test combination from Boehringer Mannheim, Germany.

healthy, fed rats [5] = experiment: Increase of relative weight of the heart (cardiac hypertrophy); conditions: weight of heart/100 g body weight, oral equimolar doses for 16 days, 24 hours after last administration
Excerpt: as §2, §3
The animals were killed by decapitation and exsanguination, and the weight of the heart muscle, which had been freed from the right atrium, was determined by weighing and based on 100 g of body. weight.

healthy, fed rats [6] = experiment: Pharmacological safety index; conditions: for (C) Safety index (%): lowering of glucose + triglycerides + cholesterol in per cent divided by increase of GPT activity + relative heart weight in per cent, higher = safer; for Safety index compared to the prior art: result in words, from Table 2
Excerpt: The higher the index, the greater the safety of the substance.

CCOC(=O)C1(CCCCCOc2ccc(OC(F)F)cc2)CO1 (stereo not drawn) [Substance 3]
(A) Glucose (%), change vs placebo-treated control animals [1]: −27%
Superiority compared to the prior art with respect to lowering glucose after fasting [1]: particularly pronounced
(B) Triglycerides (%), change vs placebo-treated control animals (fed, healthy rats [2]): −73%
Effect compared to the prior art, taking into account the triglyceride- and cholesterol-lowering effect (fed, healthy rats [2]; result in words, from Tab. 1): superior to the prior art
(C) Cholesterol (%), change vs placebo-treated control animals (fed, healthy rats [3]): −26%
(A) GPT activity (%), increase (healthy, fed rats [4]): 12%
(B) Relative weight of the heart (%), increase (healthy, fed rats [5]): 11%
(C) Safety index (%) (healthy, fed rats [6]): 5.48%
Safety index compared to the prior art (healthy, fed rats [6]): superior to the prior art

CCOC(=O)C1(CCCCCCOc2ccc(Cl)cc2)CO1 (stereo not drawn) [Substance 1]
(A) Glucose (%), change vs placebo-treated control animals [1]: −18%
(B) Triglycerides (%), change vs placebo-treated control animals (fed, healthy rats [2]): −50%
(C) Cholesterol (%), change vs placebo-treated control animals (fed, healthy rats [3]): −15%
(A) GPT activity (%), increase (healthy, fed rats [4]): 8%
(B) Relative weight of the heart (%), increase (healthy, fed rats [5]): 14%
(C) Safety index (%) (healthy, fed rats [6]): 3.77%

CCOC(=O)C1(CCCCCCOc2ccc(OC(F)F)cc2)CO1 (stereo not drawn) [Substance 2]
(A) Glucose (%), change vs placebo-treated control animals [1]: −27%
Superiority compared to the prior art with respect to lowering glucose after fasting [1]: particularly pronounced
(B) Triglycerides (%), change vs placebo-treated control animals (fed, healthy rats [2]): −69%
(C) Cholesterol (%), change vs placebo-treated control animals (fed, healthy rats [3]): −13%
(A) GPT activity (%), increase (healthy, fed rats [4]): 5%
(B) Relative weight of the heart (%), increase (healthy, fed rats [5]): 14%
(C) Safety index (%) (healthy, fed rats [6]): 5.74%
Safety index compared to the prior art (healthy, fed rats [6]): superior to the prior art

CCOC(=O)C1(CCCCCOc2ccc(C(C)=O)cc2)CO1 (stereo not drawn) [Substance 4]
(A) Glucose (%), change vs placebo-treated control animals [1]: −7%
(B) Triglycerides (%), change vs placebo-treated control animals (fed, healthy rats [2]): −41%
(C) Cholesterol (%), change vs placebo-treated control animals (fed, healthy rats [3]): −8%
(A) GPT activity (%), increase (healthy, fed rats [4]): −9%
(B) Relative weight of the heart (%), increase (healthy, fed rats [5]): −2%
(C) Safety index (%) (healthy, fed rats [6]): 56%
Safety index compared to the prior art (healthy, fed rats [6]): particularly superior to the prior art
